Assays:
[1] = biological target: T1, FTVI of colon tumor CC9338 (Homo sapiens, UniProt P51993); assay: FTVI assay, colon tumor extract; type: biochemical; conditions: 1 mg protein of the tissue extract
T1 construct: from tissue; host or cells: colon tumor tissue CC9338, Triton X-100 extract
Description: (§1) Colon tumor tissue (CC9338) and breast tumor tissue (BC9400) were obtained during surgical procedures at Roswell Park Cancer Institute and stored frozen within 1 h at −70° C. The tissues were homogenized at 4° C. with 4 volumes of 0.1M Tris Maleate […] 0.1% NaN3 using kinematica. After adjusting the concentration of Triton X-100 to 2%, these homogenates were mixed in the cold room for 1 h using Speci-Mix (Thermolyne) and then centrifuged at 20,000 g for 1 h at 4° C. The clear fat-free supernatant was stored frozen at −20° C. until use. Aliquots of 10 μL from this extract were used in assays run in duplicates. Glycosyltransferase activity in cell lysate was determined by mixing the lysates with acceptor and radiolabeled donor (monosaccharide) under the reaction conditions detailed below, followed by separation of un-reacted donor from the radioactive product using anionic or hydrophobic chromatography. In all cases, the radioactive content of isolated products was determined by using 3a70 scintillation cocktail (Research Products International, Mount Prospect, Ill.) and a Beckman LS6500 scintillation counter. Controls for each assay contained the reaction mixture with everything except the acceptor. All assays were run in duplicate. […]

[2] = tested on: β-GlcNAc:β1,4Gal-T of colon tumor CC9338; assay: β-GlcNAc:β1,4Gal-T assay, colon tumor extract; type: biochemical, human; conditions: other acceptors, 1 mg protein of the tissue extract
Description: (§2) Colon tumor tissue (CC9338) and breast tumor tissue (BC9400) were obtained during surgical procedures at Roswell Park Cancer Institute and stored frozen within 1 h at −70° C. The tissues were homogenized at 4° C. with 4 volumes of 0.1M Tris Maleate […] 0.1% NaN3 using kinematica. After adjusting the concentration of Triton X-100 to 2%, these homogenates were mixed in the cold room for 1 h using Speci-Mix (Thermolyne) and then centrifuged at 20,000 g for 1 h at 4° C. The clear fat-free supernatant was stored frozen at −20° C. until use. Aliquots of 10 μL from this extract were used in assays run in duplicates. Glycosyltransferase activity in cell lysate was determined by mixing the lysates with acceptor and radiolabeled donor (monosaccharide) under the reaction conditions detailed below, followed by separation of un-reacted donor from the radioactive product using anionic or hydrophobic chromatography. In all cases, the radioactive content of isolated products was determined by using 3a70 scintillation cocktail (Research Products International, Mount Prospect, Ill.) and a Beckman LS6500 scintillation counter. Controls for each assay contained the reaction mixture with everything except the acceptor. All assays were run in duplicate.
(§3) The acceptors used for measuring the glycosyltransferase and sulfotransferase activities are given in Table I. The following are the conditions for individual enzymatic assays. Reaction temperature in all cases was 37° C. α2,3- and α2,6 sialytransferase (ST) assay reactions proceeded for 2 h in a mixture containing 100 mM sodium cacodylate buffer (pH 6.0), 7.5 mM acceptor, CMP-[9-^3H]NeuAc (typically 0.2 μCi) and 10 μl cell extract in a total volume of 20 μl [Chandrasekaran et al., 1995]. βGlcNAc:β1,4Gal-T and αGalNAc:β1,3Gal-T assay mixtures in duplicate contained 0.1M Hepes-NaOH pH 7.0, 7 mM ATP, 20 mM Mn acetate, 1 mM UDP-Gal, UDP [^14C]Gal (0.05 μCi; 327mCi/mmol; Amersham), 0.5 mM acceptor (unless otherwise stated) and the enzyme in a total volume of 20 μL. It was incubated for 4 h [Chandrasekaran et al., 2001]. βGlcNAc:β1,4GalNAc-T assay mixtures in duplicate contained 0.1M Hepes-NaOH pH 7.0, 7 mM ATP, 20 mM Mn acetate. UDP [^3H] GalNAc (0.20 μCi; 7.8 Ci/mmol: New England Nuclear Corp.) 7.5 mM acceptor (unless otherwise stated) and the enzyme in a total volume of 20 μL and incubated for 4 h [Chandrasekaran et al., 2001].
(§4) Dowex-1-C1 or Sep-Pak C18 cartridges were used to isolate radiolabeled product from the reaction mixture. For GalT, GalNAc-T and FT assays, the incubation mixture was diluted with 1 ml water and passed through a 1 ml Dowex-1-C1 column [Chandrasekaran et al., 1996; Chandrasekaran et al., 2001]. The column was washed twice with 1 ml of water. The breakthrough and the water wash contained the [^14C]-galactosylated or [^14C]-fucosylated products formed with neutral acceptors. 3 ml of 0.1M NaCl was used to obtain [^14C]-fucosylated products from sialylated acceptors after water elution. For sialytransferase assays, the radioactive products from benzylglycosides were separated by hydrophobic chromatography on Sep-Pak C18 cartridge (Waters, Milford, Mass.), and elution of the product was done with 3 ml methanol [Palcic et al., 1988]. For sulfotransferase assays, elution of the [^35S]-sulfated compound from Dowex-1-C1 column was achieved by 3 ml of 0.2M NaCl [Chandrasekaran et al., 2004].

[3] = tested on: β-GlcNAc:β1,4Gal-T of breast tumor BC9400; assay: β-GlcNAc:β1,4Gal-T assay, breast tumor extract; type: biochemical, human; conditions: other acceptors, 1 mg protein of the tissue extract
Description: as §2, §3, §4

[4] = tested on: β-GlcNAc:β1,4GalNAc-T of breast tumor BC9400; assay: β-GlcNAc:β1,4GalNAc-T assay, breast tumor extract; type: biochemical, human; conditions: other acceptors, 1 mg protein of the tissue extract
Description: as §2, §3, §4

[5] = tested on: β-GlcNAc:β1,4GalNAc-T of colon tumor CC9338; assay: β-GlcNAc:β1,4GalNAc-T assay, colon tumor extract; type: biochemical, human; conditions: other acceptors, 1 mg protein of the tissue extract
Description: as §2, §3, §4

[6] = biological target: T2, FTVI of breast tumor BC9400 (Homo sapiens, UniProt P51993); assay: FTVI assay, breast tumor extract; type: biochemical; conditions: 1 mg protein of the tissue extract
T2 construct: from tissue; host or cells: breast tumor tissue BC9400, Triton X-100 extract
Description: as §1

T1 sequence (P51993 whole entry): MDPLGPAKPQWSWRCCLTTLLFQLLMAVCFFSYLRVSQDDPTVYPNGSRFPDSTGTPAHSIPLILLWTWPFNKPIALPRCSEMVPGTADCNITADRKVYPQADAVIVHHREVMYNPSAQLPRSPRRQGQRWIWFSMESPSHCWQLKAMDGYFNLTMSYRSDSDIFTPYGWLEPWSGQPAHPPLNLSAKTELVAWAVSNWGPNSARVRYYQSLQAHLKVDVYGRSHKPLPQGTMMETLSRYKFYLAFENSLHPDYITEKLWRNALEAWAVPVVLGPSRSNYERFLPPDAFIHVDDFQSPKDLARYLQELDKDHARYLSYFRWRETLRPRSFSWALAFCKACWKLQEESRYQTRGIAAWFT
T2 sequence (P51993 whole entry): as above

For CC(=O)N[C@H]1[C@H](OCc2ccccc2)O[C@H](CO)[C@@H](O[C@@H]2O[C@H](CO)[C@@H](O)[C@H](O)[C@H]2NC(C)=O)[C@@H]1O [GlcNAcβ1,4GlcNAcβ-O-Bn], the “FTVI activity: incorporation of radioactive sugar” value [1] was 139.1 CPM × 10^−3, the “a) β-GlcNAc:β1,4Gal-T activity: incorporation of radioactive sugar” value [2] was 307.6 CPM × 10^−3 and the “a) β-GlcNAc:β1,4Gal-T activity: incorporation of radioactive sugar” value [3] was 436.7 CPM × 10^−3. For the same compound, the “b) β-GlcNAc:β1,4GalNAc-T activity: incorporation of radioactive sugar” value [4] was 57.8 CPM × 10^−3, the “b) β-GlcNAc:β1,4GalNAc-T activity: incorporation of radioactive sugar” value [5] was 18.9 CPM × 10^−3 and the “FTVI activity: incorporation of radioactive sugar” value [6] was 0.3 CPM × 10^−3.
